Measured values: patent publication US20030044380A1, “Adhesive including medicament” (priority 2001, published 2003)

Experiments:
[1] = Direct blending of unencapsulated medicament with cyanoacrylic ester (storage stability); type: physicochemical
Method: Adhesive formulations including unencapsulated antibiotics were investigated. The medicaments were vacuum dried for 6 hours at room temperature in the presence of phosphorous pentoxide to remove the residual water. Direct blending of the medicaments with cyanoacrylic ester was conducted in a drying chamber protected by a high-purity nitrogen atmosphere.

[2] = Solubility in formaldehyde acetone crosslinking solution; type: physicochemical
Description: While not wishing to be limited to any particular mechanism, it is believed that the crosslinking step accounts, in part, for the encapsulation efficiency.

[3] = Release of medicament from solidified adhesive film into physiologic saline; type: physicochemical; conditions: extract in physiologic saline, UV spectroscopy
Method: Samples of adhesive containing either encapsulated Penicillin G or unencapsulated Penicillin G were prepared as described above. Solidification of the adhesives was carried out in moist air so as to provide an accelerated solidification rate. The solidified adhesives having a thickness of about 1 mm were cut into small pieces which were immersed in physiologic saline at room temperature. The aqueous extracts were examined using UV spectroscopy.

[4] = Stability of medicament in aqueous solution or extract (UV, HPLC); conditions: physiologic saline or aqueous solution
Description: Because the UV spectra of DSP and the extractive aqueous solution of Super Glue™ have overlapped absorptions at 240 nm, the release behavior of cyanoacrylate adhesives containing DSP microcapsules was studied by HPLC instead of UV spectroscopy.

Nc1ccc(S(N)(=O)=O)cc1 [Sulfanilamide, Sulfanilamidum Crystallinum Sterile]
shelf life of cyanoacrylate adhesives in the presence of unencapsulated medicament ([1]; direct blending under nitrogen): more than 24 hours

COc1c(N2CCNC(C)C2)c(F)cc2c(=O)c(C(=O)O)cn(C3CC3)c12 (stereo not drawn) [Gatifloxacin]
time to solidification after direct mixing ([1]; methyl cyanoacrylate (Super Glue) with dry powder, room temperature): about 3 hours
solubility in a formaldehyde acetone solution [2]: relatively weak solubility

CC1(C)S[C@@H]2[C@H](NC(=O)Cc3ccccc3)C(=O)N2[C@H]1C(=O)[O-].[Na+] [Penicillin G, Penicillin G Sodium Salt]
observation on direct mixing with Super Glue ([1]; unencapsulated medicament): Agglomeration was observed
release from solidified adhesive film [3]: no detectable release
stability in aqueous solution / aqueous extract [4]: observed to decompose during the release process
